In general, MIC refers to the lowest concentration that inhibits growth of the organism. One may read the GI50 as the concentration that inhibits growth by half. Usually LC50 stands for the concentration that kills 50% of the test population. The TGI is the concentration giving total growth inhibition.

Holding throughout (assay type): functional
One assay has as its system Candida albicans. Briefly: Antifungal activity against Candida albicans after 24 hrs by two fold dilution method.
The subject of the next assay is Aspergillus niger. Briefly: Antifungal activity against Aspergillus niger after 24 hrs by two fold dilution method.
A further assay concerns Escherichia coli. Briefly: Antibacterial activity against Escherichia coli after 24 hrs by two fold dilution method.
Assay [1] in a line: Antioxidant activity assessed as reduction in AAPH free radical-induced linoleic acid peroxidation activity measured at 100 ug/ml by UV spectroscopic analysis. Details: scale not given: the % may be the effect or the level left.
Another assay deals with Klebsiella pneumoniae. Briefly: Antibacterial activity against Klebsiella pneumoniae after 24 hrs by two fold dilution method.
Another assay relates to Staphylococcus aureus. Briefly: Antibacterial activity against Staphylococcus aureus after 24 hrs by two fold dilution method.
Assay [2] is described as follows: Antifungal activity against Cryptococcus neoformans after 24 hrs by two fold dilution method.
A short description of assay [3]: Cytotoxicity against human HeLa cells after 48 hrs by MTT assay. In general terms: Formazan colour is commonly taken as a measure of viable cells.
Assay [4] concerns Staphylococcus epidermidis. Briefly: Antibacterial activity against Staphylococcus epidermidis after 24 hrs by two fold dilution method.
Assay [5] can be described thus: Antioxidant activity assessed as ABTS radical scavenging activity at 100 ug/ml after 30 mins.
The next assay deals with Pseudomonas aeruginosa. Briefly: Antibacterial activity against Pseudomonas aeruginosa after 24 hrs by two fold dilution method.
Assay [6] can be described thus: Cytotoxicity against human HepG2 cells after 48 hrs by MTT assay. The settings on record: HepG2, 48 h.
A short description of assay [7]: Antifungal activity against Microsporum audouinii after 24 hrs by two fold dilution method.
Assay [8] can be described thus: Cytotoxicity against human MCF7 cells after 48 hrs by MTT assay. The settings on record: MCF7, 48 h.

In brackets after ≈: the same amount, converted by molar mass.

In the case of `COc1ccc(C(N2CCOCC2)N2C(c3ccccc3)CC(O)N2c2ccc([N+](=O)[O-])cc2[N+](=O)[O-])cc1` (stereo unspecified), the MIC with Candida albicans was over 100 µg/mL; in the assay with Aspergillus niger it was over 100 µg/mL; in the assay with Escherichia coli, over 100 µg/mL; in the assay with Klebsiella pneumoniae, over 100 µg/mL; against Staphylococcus aureus, 4 µg/mL (≈ 7.47 µM); in assay [2], over 100 µg/mL. In addition, the MIC in [4] was 8 µg/mL (≈ 14.9 µM); in the assay with Pseudomonas aeruginosa, over 100 µg/mL; in assay [7], 8 µg/mL (≈ 14.9 µM). Moreover, the Activity in [1] turned out to be 59.1%; in assay [5], 61.2%. The GI50 in [3] was 31.8 µM. Besides, the LC50 in assay [3], in [6] and in [8] was over 100 µM throughout. The compound further registered a TGI in assay [3] of 63.2 µM.

Consider `O=[N+]([O-])c1ccc(N2C(O)CC(c3ccccc3)N2C(c2ccc(Cl)cc2)N2CCOCC2)c([N+](=O)[O-])c1` (stereo unspecified), for which the MIC in the assay on Candida albicans is 1 µg/mL (≈ 1.85 µM); in the assay with Aspergillus niger it was 64 µg/mL (≈ 119 µM); against Escherichia coli it was 0.5 µg/mL (≈ 0.926 µM); with Klebsiella pneumoniae, 64 µg/mL (≈ 119 µM); in the assay with Staphylococcus aureus, 64 µg/mL (≈ 119 µM); in [2], 64 µg/mL (≈ 119 µM). The MIC in [4] was over 100 µg/mL; against Pseudomonas aeruginosa it was 64 µg/mL (≈ 119 µM); in assay [7] it was 64 µg/mL (≈ 119 µM). Further, the Activity in [1] turned out to be 32%; in assay [5], 41.9%. The GI50 came to 51 µM in [3], 12.2 µM in assay [6] and 46.1 µM in [8]. Further, the LC50 was over 100 µM in assay [3], 42.8 µM in [6] and over 100 µM in assay [8]. In addition, the figures for the TGI in assay [3], in assay [6] and in assay [8] were 89.2 µM, 23.1 µM and 85.1 µM, respectively.
